This passage reports EC50 results from US11254663B2 (BRISTOL-MYERS SQUIBB COMPANY, priority 2019, dated 2022).

For one experiment, the target named is FXR (Homo sapiens (Human), UniProt Q96RI1). The experiment can be described thus: transient human FXR/Gal4-luciferase reporter assay.
Chain of FXR (Q96RI1 262-486): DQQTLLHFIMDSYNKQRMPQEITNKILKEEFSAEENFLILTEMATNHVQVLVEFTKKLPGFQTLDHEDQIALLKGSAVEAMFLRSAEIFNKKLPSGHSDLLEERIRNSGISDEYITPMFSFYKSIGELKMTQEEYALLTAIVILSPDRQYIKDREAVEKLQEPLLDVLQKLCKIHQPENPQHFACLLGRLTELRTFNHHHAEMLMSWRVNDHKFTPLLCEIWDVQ
Conditions: not given
It counts as cell-based. The method in brief:
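Compound exposure ran overnight at 37 °C and activity was measured as luminescence with Steady-Glo reagent. The cells were a HEK293 line stably expressing firefly luciferase under five Gal4 response elements. They were transiently transfected, one night beforehand, with a plasmid encoding Gal4 DNA-binding domain fused to the human FXR ligand-binding domain.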
(A reporter such as luciferase makes a cellular process visible.)
On to `CCOc1ncc(-c2cccc(N(CC34CCC(c5nc(C(C)(C)C)no5)(CC3)CC4)C(=O)[C@H]3C[C@@H](OC)C3)c2)cn1` [Example 502, (1S,3S)—N-((4-(3-(tert-butyl)-1,2,4-oxadiazol-5-yl)bicyclo[2.2.2]octan-1-yl)methyl)-N-(3-(2-ethoxypyrimidin-5-yl)phenyl)-3-methoxycyclobutane-1-carboxamide], for which the EC50 (usually the concentration giving half of the maximal effect) was found to be 689 nM. On the same count and under the same terms, for `CC(C)(O)c1ccc(-c2cccc(N(CC34CCC(c5noc(C(C)(C)F)n5)(CC3)CC4)C(=O)N3CC(O)(C(F)(F)F)C3)c2)cc1` [Example 643, N-((4-(5-(2-fluoropropan-2-yl)-1,2,4-oxadiazol-3-yl)bicyclo[2.2.2]octan-1-yl)methyl)-3-hydroxy-N-(4′-(2-hydroxypropan-2-yl)-[1,1′-biphenyl]-3-yl)-3-(trifluoromethyl)azetidine-1-carboxamide] the value was 235 nM.

Still in this experiment, the particulars now being: Gal4-hFXR fusion construct, HEK293 reporter cells; response relative to 8 μM GW-4064.
`COc1nccc(-c2cccc(N(CC34CCC(c5nc(C6CC6)no5)(CC3)CC4)C(=O)C34CC(F)(C3)C4)c2)n1` [Example 242, N-((4-(3-cyclopropyl-1,2,4-oxadiazol-5-yl)bicyclo[2.2.2]octan-1-yl)methyl)-3-fluoro-N-(3-(2-methoxypyrimidin-4-yl)phenyl)bicyclo[1.1.1]pentane-1-carboxamide] yielded an EC50 of 276 nM. The same measure, in the same setting: with `CC(C)(C)c1nc(C23CCC(CN(C(=O)C45CC(F)(C4)C5)c4cccc(-c5ccc(NS(=O)(=O)C(F)(F)F)cc5)c4)(CC2)CC3)no1` [Example 446, N-((4-(5-(tert-butyl)-1,2,4-oxadiazol-3-yl)bicyclo[2.2.2]octan-1-yl)methyl)-3-fluoro-N-(4′-((trifluoromethyl)sulfonamido)-[1,1′-biphenyl]-3-yl)bicyclo[1.1.1]pentane-1-carboxamide] the figure was 225 nM; with `CC(C)(F)c1nc(C23CCC(CN(C(=O)O[C@H]4C[C@](O)(C(F)(F)F)C4)c4cc(-c5ccc(OC(F)F)cc5)c(F)cn4)(CC2)CC3)no1` [Example 629, (cis)-3-hydroxy-3-(trifluoromethyl)cyclobutyl (4-(4-(difluoromethoxy)phenyl)-5-fluoropyridin-2-yl)((4-(5-(2-fluoropropan-2-yl)-1,2,4-oxadiazol-3-yl)bicyclo[2.2.2]octan-1-yl)methyl)carbamate], 99 nM. Compound `CCOc1ccc(-c2cccc(N(CC34CCC(c5nc(C(C)C)no5)(CC3)CC4)C(=O)C34CC(F)(C3)C4)c2)cn1` [Example 381, N-(3-(6-ethoxypyridin-3-yl)phenyl)-3-fluoro-N-((4-(3-isopropyl-1,2,4-oxadiazol-5-yl)bicyclo[2.2.2]octan-1-yl)methyl)bicyclo[1.1.1]pentane-1-carboxamide] registered a half-maximal effective concentration (EC50) of 40 nM.

`O=C(N(CC12CCC(c3nc(C4CC4)no3)(CC1)CC2)c1cccc(-c2ccc3c(c2)OCO3)c1)C12CC(F)(C1)C2` [Example 255, N-(3-(benzo[d][1,3]dioxol-5-yl)phenyl)-N-((4-(3-cyclopropyl-1,2,4-oxadiazol-5-yl)bicyclo[2.2.2]octan-1-yl)methyl)-3-fluorobicyclo[1.1.1]pentane-1-carboxamide] returned a concentration for a half-maximal effect (EC50) of 69.8 nM. Still for that read-out and setting: with `CC(C)(C#N)Oc1ccc(-c2cc(N(CC34CCC(c5noc(C(C)(C)F)n5)(CC3)CC4)C(=O)[C@H]3C[C@](O)(C(F)(F)F)C3)ccc2F)cc1` [Example 582, (cis)-N-(4′-((2-cyanopropan-2-yl)oxy)-6-fluoro-[1,1′-biphenyl]-3-yl)-N-((4-(5-(2-fluoropropan-2-yl)-1,2,4-oxadiazol-3-yl)bicyclo[2.2.2]octan-1-yl)methyl)-3-hydroxy-3-(trifluoromethyl)cyclobutane-1-carboxamide] the figure was 48 nM; with `COc1ccc(-c2cccc(N(CC34CCC(c5nc(C(C)C)no5)(CC3)CC4)C(=O)C34CC(F)(C3)C4)c2)cc1` [Example 377, 3-fluoro-N-((4-(3-isopropyl-1,2,4-oxadiazol-5-yl)bicyclo[2.2.2]octan-1-yl)methyl)-N-(4′-methoxy-[1,1′-biphenyl]-3-yl)bicyclo[1.1.1]pentane-1-carboxamide], 52 nM; with `Cc1nc2ccc(-c3cccc(N(CC45CCC(c6nc(C7CC7)no6)(CC4)OC5)C(=O)C45CC(F)(C4)C5)c3)cc2s1` [Example 564, N-((1-(3-cyclopropyl-1,2,4-oxadiazol-5-yl)-2-oxabicyclo[2.2.2]octan-4-yl)methyl)-3-fluoro-N-(3-(2-methylbenzo[d]thiazol-6-yl)phenyl)bicyclo[1.1.1]pentane-1-carboxamide], 207 nM. Compound `CO[C@H]1C[C@@H](C(=O)N(CC23CCC(c4noc(C(C)(C)C)n4)(CC2)CC3)c2cccc(-c3ccc(NS(C)(=O)=O)cc3)c2)C1` [Example 514, (1S,3S)—N-((4-(5-(tert-butyl)-1,2,4-oxadiazol-3-yl)bicyclo[2.2.2]octan-1-yl)methyl)-3-methoxy-N-(4′-(methylsulfonamido)-[1,1′-biphenyl]-3-yl)cyclobutane-1-carboxamide] had an EC50 of 2260 nM. The same measure, in the same setting: with `O=C(N(CC12CCC(c3nc(C4CC4)no3)(CC1)CC2)c1cccc(-c2ccc(OC(F)(F)F)cc2)c1)C12CC(F)(C1)C2` [Example 251, N-((4-(3-cyclopropyl-1,2,4-oxadiazol-5-yl)bicyclo[2.2.2]octan-1-yl)methyl)-3-fluoro-N-(4′-(trifluoromethoxy)-[1,1′-biphenyl]-3-yl)bicyclo[1.1.1]pentane-1-carboxamide] the figure was 277 nM; with `CC(C)(C)c1nc(C23CCC(CN(C(=O)C45CC(F)(C4)C5)c4cc(-c5ncc(OC(F)F)cn5)ccn4)(CC2)CC3)no1` [Example 541, N-((4-(5-(tert-butyl)-1,2,4-oxadiazol-3-yl)bicyclo[2.2.2]octan-1-yl)methyl)-N-(4-(5-(difluoromethoxy)pyrimidin-2-yl)pyridin-2-yl)-3-fluorobicyclo[1.1.1]pentane-1-carboxamide], 18 nM; with `CC(F)(F)c1nc(C23CCC(CN(C(=O)C45CC(F)(C4)C5)c4ccc(F)c(C5CC5)c4)(CC2)CC3)no1` [Example 574, N-(3-cyclopropyl-4-fluorophenyl)-N-((4-(5-(1,1-difluoroethyl)-1,2,4-oxadiazol-3-yl)bicyclo[2.2.2]octan-1-yl)methyl)-3-fluorobicyclo[1.1.1]pentane-1-carboxamide], 244 nM. Regarding `Cc1nc2ccc(-c3ccnc(N(CC45CCC(c6nc(C7CC7)no6)(CC4)CC5)C(=O)C45CC(F)(C4)C5)c3)cc2o1` [Example 550, N-((4-(3-cyclopropyl-1,2,4-oxadiazol-5-yl)bicyclo[2.2.2]octan-1-yl)methyl)-3-fluoro-N-(4-(2-methylbenzo[d]oxazol-6-yl)pyridin-2-yl)bicyclo[1.1.1]pentane-1-carboxamide], the response was half-maximal at 70 nM (EC50). Turning to `Cc1nc2ncc(-c3cccc(N(CC45CCC(c6nc(C(C)(C)C)no6)(CC4)CC5)C(=O)C45CC(F)(C4)C5)c3)cc2s1` [Example 365, N-((4-(3-(tert-butyl)-1,2,4-oxadiazol-5-yl)bicyclo[2.2.2]octan-1-yl)methyl)-3-fluoro-N-(3-(2-methylthiazolo[4,5-b]pyridin-6-yl)phenyl)bicyclo[1.1.1]pentane-1-carboxamide], it took 84 nM to reach a half-maximal effect (EC50).
